# Measured values: the kinase profiling compilation of Christmann-Franck et al. (2016)
# Assays:
# Assay in all cases: radiometric filter-binding kinase assay, Kinase HotSpot
# Details in all cases: compound 0.5 µM; ATP 10 µM
# [1] = target: PRKCH (human) (UniProt P24723)
# [2] = target: DYRK1A (human) (UniProt Q13627)
# [3] = target: RPS6KA2 KD1 KD2 (human) (UniProt Q15349)
# [4] = target: BRSK1 (human) (UniProt Q8TDC3)
# [5] = target: CDK5 CDK5R1 p25 (human) (UniProt Q00535+Q15078)
# [6] = target: NEK7 (human) (UniProt Q8TDX7)
# [7] = target: INSRR (human) (UniProt P14616)
# [8] = target: KDR (human) (UniProt P35968)
# [9] = target: PRKACA (human) (UniProt P17612)
# [10] = target: NEK1 (human) (UniProt Q96PY6)
# [11] = target: CAMKK2 (human) (UniProt Q96RR4)
# [12] = target: PAK7 (human) (UniProt Q9P286)
# [13] = target: MAPK13 (human) (UniProt O15264)
# [14] = target: PTK2 (human) (UniProt Q05397)
# [15] = target: CLK1 (human) (UniProt P49759)
# [16] = target: MKNK2 (human) (UniProt Q9HBH9)
# [17] = target: STK17A (human) (UniProt Q9UEE5)
# [18] = target: PRKCB2 (human) (UniProt P05771)
# [19] = target: MYLK2 (human) (UniProt Q9H1R3)
# [20] = target: PAK1 (human) (UniProt Q13153)
# Chain of PAK1 (human) (Q13153 whole entry, looked up): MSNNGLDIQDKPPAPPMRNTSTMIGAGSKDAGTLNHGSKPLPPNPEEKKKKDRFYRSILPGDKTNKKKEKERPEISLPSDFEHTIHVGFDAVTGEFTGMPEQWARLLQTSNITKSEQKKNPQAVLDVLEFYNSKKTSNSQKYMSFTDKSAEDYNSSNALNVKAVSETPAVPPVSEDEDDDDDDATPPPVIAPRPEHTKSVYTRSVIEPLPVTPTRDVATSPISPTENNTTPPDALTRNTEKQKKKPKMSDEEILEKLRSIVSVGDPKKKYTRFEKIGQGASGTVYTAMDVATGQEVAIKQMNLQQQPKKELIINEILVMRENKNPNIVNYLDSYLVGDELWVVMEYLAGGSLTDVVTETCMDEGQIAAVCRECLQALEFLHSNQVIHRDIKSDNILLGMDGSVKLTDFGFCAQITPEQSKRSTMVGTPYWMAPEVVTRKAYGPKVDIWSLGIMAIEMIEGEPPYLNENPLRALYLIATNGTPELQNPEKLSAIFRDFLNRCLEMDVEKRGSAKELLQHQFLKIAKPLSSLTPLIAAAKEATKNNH
# [21] = target: MAP3K2 (human) (UniProt Q9Y2U5)
# [22] = target: DMPK (human) (UniProt Q09013)
# Chain of DMPK (human) (Q09013 whole entry, looked up): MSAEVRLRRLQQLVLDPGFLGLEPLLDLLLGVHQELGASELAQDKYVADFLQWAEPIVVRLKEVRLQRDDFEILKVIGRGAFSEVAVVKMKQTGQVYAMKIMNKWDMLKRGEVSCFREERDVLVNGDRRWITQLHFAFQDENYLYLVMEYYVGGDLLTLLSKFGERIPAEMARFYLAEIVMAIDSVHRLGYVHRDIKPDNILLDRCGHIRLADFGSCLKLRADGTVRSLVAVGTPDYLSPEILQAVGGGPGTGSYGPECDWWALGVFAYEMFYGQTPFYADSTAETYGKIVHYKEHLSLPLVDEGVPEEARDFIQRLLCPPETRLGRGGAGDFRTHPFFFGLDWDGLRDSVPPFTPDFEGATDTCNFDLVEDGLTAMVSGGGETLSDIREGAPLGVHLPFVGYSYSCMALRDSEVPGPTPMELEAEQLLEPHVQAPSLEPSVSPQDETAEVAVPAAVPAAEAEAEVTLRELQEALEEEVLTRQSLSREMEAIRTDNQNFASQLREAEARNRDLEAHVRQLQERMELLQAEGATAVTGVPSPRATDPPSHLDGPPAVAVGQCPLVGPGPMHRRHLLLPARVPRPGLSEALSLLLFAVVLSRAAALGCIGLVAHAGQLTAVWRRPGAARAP
# [23] = target: PTK6 (human) (UniProt Q13882)
# [24] = target: ERBB2 (human) (UniProt P04626)
# [25] = target: GSK3A (human) (UniProt P49840)
# [26] = target: PHKG2 (human) (UniProt P15735)
# Chain of PHKG2 (human) (P15735 whole entry, looked up): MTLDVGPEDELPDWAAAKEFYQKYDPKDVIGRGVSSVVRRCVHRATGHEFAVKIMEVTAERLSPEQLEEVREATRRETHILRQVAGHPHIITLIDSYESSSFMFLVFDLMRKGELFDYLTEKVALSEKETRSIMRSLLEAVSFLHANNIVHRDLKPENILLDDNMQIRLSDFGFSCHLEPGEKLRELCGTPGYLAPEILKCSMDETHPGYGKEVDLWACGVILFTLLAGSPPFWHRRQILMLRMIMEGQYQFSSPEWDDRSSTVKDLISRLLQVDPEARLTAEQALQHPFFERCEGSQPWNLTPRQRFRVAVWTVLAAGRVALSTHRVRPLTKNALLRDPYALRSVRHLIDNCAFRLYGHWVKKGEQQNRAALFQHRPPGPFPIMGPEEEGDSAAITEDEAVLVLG
# [27] = target: PRKCE (human) (UniProt Q02156)
# [28] = target: ACVR1B (human) (UniProt P36896)
# Chain of ACVR1B (human) (P36896 whole entry, looked up): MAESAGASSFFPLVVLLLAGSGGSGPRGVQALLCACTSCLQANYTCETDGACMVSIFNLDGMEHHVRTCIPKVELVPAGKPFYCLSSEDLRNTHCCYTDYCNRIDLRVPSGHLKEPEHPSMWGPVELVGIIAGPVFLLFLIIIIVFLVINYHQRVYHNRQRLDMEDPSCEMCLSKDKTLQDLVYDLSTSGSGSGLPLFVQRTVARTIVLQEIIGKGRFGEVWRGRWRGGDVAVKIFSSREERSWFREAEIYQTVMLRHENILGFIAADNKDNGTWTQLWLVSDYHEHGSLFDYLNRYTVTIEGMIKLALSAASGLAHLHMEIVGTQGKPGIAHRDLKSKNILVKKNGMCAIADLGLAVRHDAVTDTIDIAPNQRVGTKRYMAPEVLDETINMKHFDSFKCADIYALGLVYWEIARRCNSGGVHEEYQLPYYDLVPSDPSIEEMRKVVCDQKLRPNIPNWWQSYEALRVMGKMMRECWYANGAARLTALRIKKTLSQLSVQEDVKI
# [29] = target: FRK (human) (UniProt P42685)
# Chain of FRK (human) (P42685 whole entry, looked up): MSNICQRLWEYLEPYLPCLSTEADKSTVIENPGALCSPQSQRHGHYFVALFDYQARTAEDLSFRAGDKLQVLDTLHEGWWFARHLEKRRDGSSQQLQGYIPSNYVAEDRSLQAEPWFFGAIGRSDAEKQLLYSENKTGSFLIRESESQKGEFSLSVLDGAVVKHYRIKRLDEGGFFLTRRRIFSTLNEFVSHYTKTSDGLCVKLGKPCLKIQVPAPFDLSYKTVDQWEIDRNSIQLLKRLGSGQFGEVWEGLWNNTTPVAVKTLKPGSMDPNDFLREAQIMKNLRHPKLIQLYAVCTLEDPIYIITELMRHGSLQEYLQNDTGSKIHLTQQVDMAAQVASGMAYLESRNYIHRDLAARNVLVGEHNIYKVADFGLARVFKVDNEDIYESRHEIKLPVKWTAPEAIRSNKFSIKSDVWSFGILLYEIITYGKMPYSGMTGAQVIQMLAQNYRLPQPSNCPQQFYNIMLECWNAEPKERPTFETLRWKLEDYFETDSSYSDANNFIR
# [30] = target: DYRK3 (human) (UniProt O43781)
# [31] = target: CDK1 CCNA2 (human) (UniProt P06493+P20248)
# [32] = target: SRPK1 (human) (UniProt Q96SB4)
# [33] = target: DDR2 (human) (UniProt Q16832)
# [34] = target: LIMK1 (human) (UniProt P53667)
# [35] = target: PKN2 (human) (UniProt Q16513)
# [36] = target: FGFR1 (human) (UniProt P11362)
# [37] = target: PHKG1 (human) (UniProt Q16816)
# Chain of PHKG1 (human) (Q16816 whole entry, looked up): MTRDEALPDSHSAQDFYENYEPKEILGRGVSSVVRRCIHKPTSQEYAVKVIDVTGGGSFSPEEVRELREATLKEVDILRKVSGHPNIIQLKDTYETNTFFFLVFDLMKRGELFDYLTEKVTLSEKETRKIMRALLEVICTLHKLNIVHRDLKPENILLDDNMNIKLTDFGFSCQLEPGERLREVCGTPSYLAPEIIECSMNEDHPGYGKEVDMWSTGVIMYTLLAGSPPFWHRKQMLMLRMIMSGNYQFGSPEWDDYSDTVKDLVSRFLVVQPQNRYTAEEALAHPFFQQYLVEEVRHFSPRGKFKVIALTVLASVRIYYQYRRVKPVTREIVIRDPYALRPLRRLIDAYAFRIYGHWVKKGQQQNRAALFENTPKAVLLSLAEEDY
# [38] = target: STK11 (human) (UniProt Q15831)
# [39] = target: RPS6KA6 KD1 KD2 (human) (UniProt Q9UK32)
# Chain of RPS6KA6 KD1 KD2 (human) (Q9UK32 whole entry, looked up): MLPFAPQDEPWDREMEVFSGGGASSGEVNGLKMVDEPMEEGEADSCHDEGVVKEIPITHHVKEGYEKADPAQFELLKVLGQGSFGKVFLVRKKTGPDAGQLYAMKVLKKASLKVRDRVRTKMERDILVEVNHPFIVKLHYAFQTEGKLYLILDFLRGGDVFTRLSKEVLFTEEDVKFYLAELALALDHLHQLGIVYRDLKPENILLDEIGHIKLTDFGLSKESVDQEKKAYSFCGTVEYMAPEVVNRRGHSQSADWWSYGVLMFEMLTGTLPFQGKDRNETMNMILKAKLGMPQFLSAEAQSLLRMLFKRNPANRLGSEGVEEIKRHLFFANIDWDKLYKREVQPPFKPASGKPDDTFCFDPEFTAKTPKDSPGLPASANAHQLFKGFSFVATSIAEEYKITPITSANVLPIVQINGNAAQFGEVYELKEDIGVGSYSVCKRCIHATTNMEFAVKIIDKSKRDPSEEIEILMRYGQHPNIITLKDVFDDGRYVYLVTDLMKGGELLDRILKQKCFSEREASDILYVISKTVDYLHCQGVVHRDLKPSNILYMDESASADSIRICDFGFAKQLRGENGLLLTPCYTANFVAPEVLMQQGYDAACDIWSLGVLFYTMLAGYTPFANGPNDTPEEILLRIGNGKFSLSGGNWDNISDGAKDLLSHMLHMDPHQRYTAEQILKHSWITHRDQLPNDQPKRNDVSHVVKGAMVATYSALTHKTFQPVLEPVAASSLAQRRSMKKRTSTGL
# [40] = target: CSNK1E (human) (UniProt P49674)
# Chain of CSNK1E (human) (P49674 whole entry, looked up): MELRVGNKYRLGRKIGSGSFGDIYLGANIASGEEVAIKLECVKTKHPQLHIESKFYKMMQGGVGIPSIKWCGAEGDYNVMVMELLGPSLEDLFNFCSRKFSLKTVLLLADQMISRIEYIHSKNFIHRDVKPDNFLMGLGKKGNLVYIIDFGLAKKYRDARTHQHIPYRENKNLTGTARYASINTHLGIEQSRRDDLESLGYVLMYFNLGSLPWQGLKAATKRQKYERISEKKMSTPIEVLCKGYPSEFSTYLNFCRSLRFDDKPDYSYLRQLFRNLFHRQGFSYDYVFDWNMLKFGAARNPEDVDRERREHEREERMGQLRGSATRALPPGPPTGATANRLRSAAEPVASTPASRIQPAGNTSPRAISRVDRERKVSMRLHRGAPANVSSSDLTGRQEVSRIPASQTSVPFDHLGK
# [41] = target: CAMK1 (human) (UniProt Q14012)
# [42] = target: ADRBK1 (human) (UniProt P25098)
# Chain of CDK5 CDK5R1 p25 (human) (Q00535 whole entry, looked up): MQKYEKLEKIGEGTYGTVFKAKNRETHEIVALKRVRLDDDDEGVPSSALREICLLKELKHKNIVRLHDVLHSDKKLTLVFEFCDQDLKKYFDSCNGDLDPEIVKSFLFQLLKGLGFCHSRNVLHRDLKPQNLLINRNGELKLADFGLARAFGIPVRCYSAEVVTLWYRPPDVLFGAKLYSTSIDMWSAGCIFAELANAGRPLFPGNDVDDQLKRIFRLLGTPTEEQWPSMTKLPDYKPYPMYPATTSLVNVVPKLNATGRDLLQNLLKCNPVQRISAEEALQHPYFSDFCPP
# Chain of CDK5 CDK5R1 p25 (human) (Q15078 whole entry, looked up): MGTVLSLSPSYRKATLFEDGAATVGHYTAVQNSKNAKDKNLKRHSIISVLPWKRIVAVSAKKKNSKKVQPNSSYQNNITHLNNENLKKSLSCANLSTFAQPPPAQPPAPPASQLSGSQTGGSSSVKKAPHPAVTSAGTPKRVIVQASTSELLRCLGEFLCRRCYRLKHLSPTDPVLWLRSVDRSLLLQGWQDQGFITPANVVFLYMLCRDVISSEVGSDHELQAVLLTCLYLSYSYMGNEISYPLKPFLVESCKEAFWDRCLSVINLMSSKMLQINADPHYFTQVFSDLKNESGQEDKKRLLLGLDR
smiles,measurement,setting,value
CC[n+]1c(/C=C/N(C)c2ccccc2)n(-c2ccccc2)c2ccc(-c3nc4ccccc4s3)cc21,residual activity,[1],101%
same,residual activity,[2],96.7%
same,residual activity,[3],101%
same,residual activity,[4],101%
same,residual activity,[5],103%
same,residual activity,[6],95.4%
same,residual activity,[7],101%
same,residual activity,[8],93.9%
same,residual activity,[9],103%
same,residual activity,[10],102%
same,residual activity,[11],115%
same,residual activity,[12],98.6%
same,residual activity,[13],102%
same,residual activity,[14],108%
same,residual activity,[15],108%
same,residual activity,[16],97.4%
same,residual activity,[17],96.9%
same,residual activity,[18],118%
same,residual activity,[19],95.8%
same,residual activity,[20],87.5%
same,residual activity,[21],90.3%
same,residual activity,[22],93.9%
same,residual activity,[23],90.2%
same,residual activity,[24],92%
same,residual activity,[25],103%
same,residual activity,[26],102%
same,residual activity,[27],97.7%
same,residual activity,[28],110%
same,residual activity,[29],97.1%
same,residual activity,[30],98.7%
same,residual activity,[31],98.8%
same,residual activity,[32],105%
same,residual activity,[33],97.4%
same,residual activity,[34],98.3%
same,residual activity,[35],79.2%
same,residual activity,[36],97.4%
same,residual activity,[37],96.1%
same,residual activity,[38],93.1%
same,residual activity,[39],96%
same,residual activity,[40],105%
same,residual activity,[41],94.4%
same,residual activity,[42],87.5%
Cc1ccc(NC2=CC(=O)c3sc(C)nc3C2=O)cc1,residual activity,[1],89.4%
same,residual activity,[2],103%
same,residual activity,[3],82.5%
same,residual activity,[4],88.6%
same,residual activity,[5],61.9%
same,residual activity,[6],96.9%
same,residual activity,[7],90%
same,residual activity,[8],101%
same,residual activity,[9],95.9%
same,residual activity,[10],76.5%
same,residual activity,[11],92.5%
same,residual activity,[12],77.4%
same,residual activity,[13],105%
same,residual activity,[14],102%
same,residual activity,[15],100%
same,residual activity,[16],89%
same,residual activity,[17],93.7%
same,residual activity,[18],93.8%
same,residual activity,[19],92.8%
same,residual activity,[20],87.5%
same,residual activity,[21],93.3%
same,residual activity,[22],103%
same,residual activity,[23],89.2%
same,residual activity,[24],94.2%
same,residual activity,[25],102%
same,residual activity,[26],96.3%
same,residual activity,[27],96.3%
same,residual activity,[28],110%
same,residual activity,[29],87.9%
same,residual activity,[30],96.2%
same,residual activity,[31],75.9%
same,residual activity,[32],92.6%
same,residual activity,[33],95.6%
same,residual activity,[34],104%
same,residual activity,[35],115%
same,residual activity,[36],85.3%
same,residual activity,[37],88.7%
same,residual activity,[38],85.6%
same,residual activity,[39],73.4%
same,residual activity,[40],93.4%
same,residual activity,[41],87.6%
same,residual activity,[42],96.6%
CCN(CC)C(=O)c1ccc(Nc2nc(OCC3CCCCC3)c3nc[nH]c3n2)cc1,residual activity,[1],86.7%
same,residual activity,[2],91.9%
same,residual activity,[3],30.9%
same,residual activity,[4],84%
same,residual activity,[5],77.2%
same,residual activity,[6],103%
same,residual activity,[7],80.8%
same,residual activity,[8],76.5%
same,residual activity,[9],93.7%
same,residual activity,[10],53.1%
same,residual activity,[11],97.5%
same,residual activity,[12],49.1%
same,residual activity,[13],95.3%
same,residual activity,[14],76.9%
same,residual activity,[15],74.1%
same,residual activity,[16],89.3%
same,residual activity,[17],59.8%
same,residual activity,[18],95%
same,residual activity,[19],94.7%
same,residual activity,[20],93.8%
same,residual activity,[21],25.3%
same,residual activity,[22],105%
same,residual activity,[23],30.7%
same,residual activity,[24],99.4%
same,residual activity,[25],80.3%
same,residual activity,[26],96.6%
same,residual activity,[27],76.6%
same,residual activity,[28],101%
same,residual activity,[29],116%
same,residual activity,[30],97.6%
same,residual activity,[31],95.2%
same,residual activity,[32],91.7%
same,residual activity,[33],109%
same,residual activity,[34],35.2%
same,residual activity,[35],91.8%
same,residual activity,[36],72.8%
same,residual activity,[37],85.9%
same,residual activity,[38],85.2%
same,residual activity,[39],46.2%
same,residual activity,[40],95.6%
same,residual activity,[41],85.6%
same,residual activity,[42],92.6%
COc1ccc2c(c[n+](C)c3c4cc5c(cc4ccc23)OCO5)c1OC,residual activity,[1],101%
same,residual activity,[2],103%
same,residual activity,[3],86.1%
same,residual activity,[4],90.8%
same,residual activity,[5],86.2%
same,residual activity,[6],98.9%
same,residual activity,[7],91.8%
same,residual activity,[8],104%
same,residual activity,[9],100%
same,residual activity,[10],91.3%
same,residual activity,[11],98.2%
same,residual activity,[12],77.4%
same,residual activity,[13],97.3%
same,residual activity,[14],102%
same,residual activity,[15],101%
same,residual activity,[16],107%
same,residual activity,[17],104%
same,residual activity,[18],100%
same,residual activity,[19],95.3%
same,residual activity,[20],98.7%
same,residual activity,[21],99.8%
same,residual activity,[22],100%
same,residual activity,[23],94.4%
same,residual activity,[24],101%
same,residual activity,[25],105%
same,residual activity,[26],94.8%
same,residual activity,[27],93.6%
same,residual activity,[28],110%
same,residual activity,[29],89.3%
same,residual activity,[30],101%
same,residual activity,[31],89.7%
same,residual activity,[32],95.3%
same,residual activity,[33],96.1%
same,residual activity,[34],109%
same,residual activity,[35],93.3%
same,residual activity,[36],96%
same,residual activity,[37],90.4%
same,residual activity,[38],82.1%
same,residual activity,[39],91.1%
same,residual activity,[40],90.7%
same,residual activity,[41],81.4%
same,residual activity,[42],96.6%
